# Data: patent US20090117593A1, “T. Cruzi-derived neurotrophic agents and methods of use therefor” (Tufts University, priority 2006, published 2009)
# “Also recorded” adds a separate entry of the source.
# Assays:
# [1] = test system: IL-6; test: IL-6 secretion by PBMC (ELISA); format: cell-based, human; details: 24 hours
# Experimental: (§1) Primary cultures of human intestinal microvascular endothelial cells (HIMEC) isolated from normal jejunal mucosa/submucosal tissue were prepared as described (Strong et al., Gastroenterology 114:1244-1256 (1998)). The HIMEC were cultured in fibronectin-coated plasticware in MCDB medium (Sigma) supplemented with 20% FBS, 90 μg/ml heparin and 50 μg/ml endothelial cell growth factor (Sigma). T-24 cells (ATCC Accession No. HTB-4) were cultured in M199 medium supplemented with 10% FBS. PBMC were purified by Ficoll-Paque gradient as described (Current Protocols in Immunology, pp 7.1.1-7.1.2). Vero cells (ATCC Accession No. CCL-81) were grown in RPMI medium with 5% Nu serum and infected with the Silvio X-10/4 of T. cruzi as described previously (Chuenkova et al., J. Exp. Med. 181:1693-1703 (1995)).
# Endothelial cells and T-24 cells were plated on 24-well plates at a density of 1×10^3 cells/well, while peripheral blood mononuclear cells (PBMC) were plated in the similar wells at 1×10^6/well. Triplicat cultures of cells were incubated test agents for a predetermined amount of time. […] Cytokines and chemokines released in the culture supernatants were measured by ELISA assay following the instructions of the manufacturer (Endogen). The cytokines tested were IL-1β, IL-4, IL-8, […], IL-12, IFN-γ, TNF-α, and the chemokines RANTES and MCP-1. Negative controls were cells incubated in medium containing polymixin B at 10 μg/ml, and positive controls were cells incubated with bacterial LPS at the low ng/ml range (for PBMC or HIMEC) or in the μg/ml range for carcinoma T-24 cells. In some experiments, IL-1β or TNFα were used as positive control for cytokine release.
# TR peptides (Table 2) were synthesized at the Tufts Synthesis Facility (Boston, Mass.). Each peptide was purified by HPLC, and the number of amino acids and molecular weight of each peptide verified by mass spectrometry. Peptides were dissolved in growth medium (10% FCS in RPMI) and added at various concentrations to 1×10^6 PBMC/well in 24-well plates. After 24 hours, IL-6 was assayed by ELISA in the conditioned supernatants.
# [2] = test system: PC12 cells or Schwann cells; test: Inhibition of apoptosis of PC12 cells or Schwann cells by synthetic peptides; format: cell-based
# [3] = test system: PC12 cells; test: Protection of PC12 cells from apoptosis induced by trophic factor withdrawal (DAPI, TUNEL); format: cell-based; details: serum-free RPMI-1640/0.2% BSA, 17 hours, DAPI or TUNEL
# From the text: PC12 cells were obtained from ATCC (Manassas, Va. (Accession No. CRL-1721)) and cultured on collagen-coated dishes in RPMI 1640 supplemented with 10% horse serum and 5% fetal bovine serum (Greene, L., and Tishler, A., Proc. Natl. Acad. Sci. USA, 73:2424-2428 (1976)). For differentiation and survival experiments, cells were washed three times in serum-free RPMI/0.2% BSA, plated in the same medium in collagen-coated plastic dishes at 2×10^5/ml, without and with growth factors, TS, recombinant proteins, synthetic peptides, for the time and concentrations indicated in the Figures.
# Cell staining with 4,6-diamino-2-phenylindole (DAPI). Cells were fixed with 4% formaldehyde in PBS for 5 minutes, washed with PBS, stained with 10 μg/ml DAPI (Sigma) for 2 minutes, washed with PBS, and visualized under UV light using a fluorescent microscope. About 300-400 cells were examined under the microscope to determine the percentage of apoptotic cells.
# Cell DNA nick end labeling (TUNEL) (Gavrieli, Y. et al., J. Cell. Biol., 119:493-501 (1992)) assay was performed using a kit purchased from Boehringer Mannheim as described by the manufacturer.
# Protection against apoptosis of PC12 cells in serum-free medium containing a test agent (agent N) (e.g., protection induced by TS, TS fragments, NGF or other growth factors), was calculated by the formula: 100%−[(apoptosis(%) of cells kept in RPMI containing test agent N÷apoptosis (%) of cells kept in RPMI)×100%]. Testing the effect of Wortmannin (Sigma) and LY294002 (Sigma) in inhibiting the neuroprotection of TS was performed following the protocol described by others (Yao, R., and Cooper, G., Science, 267:2003-2006 (1995); D'Mello, et al., J. Neurosci., 17:1548-1560 (1997)). In brief, PC12 cells were switched from growth medium to RPMI without and with TS or various other growth factors. After 24 hours, Wortmannin and LY294002 were added to the cultures. After another 24 hours, cells were examined for apoptosis by the DAPI assay, as above.
# [4] = test system: PC12 cells; format: cell-based; details: serum-free RPMI/0.2% BSA, collagen coated dishes, 16-17 hours
# [5] = test system: IL-6; test: IL-6 secretion by normal human neutrophils; format: cell-based
# [6] = test system: IL-6; test: IL-6 secretion by HIMEC (ELISA); format: cell-based, human; details: 24 hours
# Experimental: as §1
# Endothelial cells and T-24 cells were plated on 24-well plates at a density of 1×10^3 cells/well, while peripheral blood mononuclear cells (PBMC) were plated in the similar wells at 1×10^6/well. Triplicat cultures of cells were incubated test agents for a predetermined amount of time. […] Cytokines and chemokines released in the culture supernatants were measured by ELISA assay following the instructions of the manufacturer (Endogen). The cytokines tested were IL-1β, IL-4, IL-8, IL-1, IL-12, IFN-γ, TNF-α, and the chemokines RANTES and MCP-1. […]
# [7] = test system: Erk1/2; test: Erk1/2 phosphorylation in PC12 cells; format: cell-based; details: 5 minutes; control peptides 10 μM
# Experimental: Activation state of TrkA, Erk1/2 and Akt kinases and transcription factor CREB was analyzed by assessing phosphorylation by Western blot with appropriate phospho-specific antibodies. For this, cells were plated in complete medium at a density of 3×10^5 cells/ml overnight on 6-well plates (BECTON DICKINSON LABWARE, Franklin Lakes, N.J.). The medium was changed to serum-free medium and the cells cultured for an additional 24 hours to reduce background phosphorylation. […] Antibody reaction was visualized by horseradish peroxidase (HRP)-conjugated secondary antibody and enhanced chemiluminescence kit (ECL). Some blots were stripped in appropriate buffer (50 mM Tris HCl, pH 7.8, 2% SDS, 1% β-mercaptoethanol) at 50° C. for 60 minutes and re-probed with p42/44MAPK, Akt or CREB antibody to ensure equal loading of proteins. For immunoprecipitation experiments, cell lysates were pre-adsorbed on protein G-Sepharose for 1 hour at 4° C. and after brief centrifugation supernatants were incubated with anti-TrkA antibody for 24 hours at 4° C. with gentle rocking. Formed immunocomplexes were captured on protein G-Sepharose, eluted with SDS-PAGE sample buffer and analyzed by immunoblotting with antibody against phospho-TrkA receptor.
# [8] = test system: PC12^TrkA cells; test: Survival of PC12^TrkA cells in serum-free medium (MTT, DAPI); format: cell-based; details: peptides 10 μM, PDNF 500 ng/ml, NGF 30 ng/ml, 48 hours to 5 days
# Experimental: PC12^nnr5 and PC12^TrkA cells were grown in RPMI with 10% FCS and 5% horse serum as described earlier (Green et al., J. Cell Biol. 102:830-843 (1986); Chuenkova and Pereira, Mol. Biol. Cell 11: 1487-1498 (2000)). Two approaches were used to study neurite extension: 1) Plating cells (1×10^5 cells/ml) on plastic wells (LABTECH 16-well slides, Nalge Nunc International, Naperville, Ill.) coated with synthetic peptides (100 μg/ml water, 4° C., overnight) or rat tail collagen (1 mg/ml PBS, 4° C., overnight). 2) Adding peptides in solution to cells plated on uncoated substratum. Cells were grown in 1% FCS-containing RPMI for 72 hours, and reacted with 0.5 mg/ml MTT (3-[4,5-dimethylthiazol-2-yl]-2,5-diphenyltetrazolium bromide) (SIGMA, St. Louis, Mo.) in serum-free medium for 1 hour at 37° C. Light microscopy was used to visualize viable cells (i.e., containing reduced insoluble formazan) with or without extended neurites (>5 μm in length). Cell viability was also determined using the CELLTITER 96 assay (Promega, Madison, Wis.) as follows: Cells, plated at 2×10^5/ml, were treated with peptides in serum-free medium for different times and exposed to CELLTITER 96 Aqueous One Solution for 1 hour at 37° C. 2) Apoptotic cells were identified by staining with DAPI (250 ng/ml) (SIGMA) 48 hours after cells were exposed to serum-free medium with or without additives in solution, as described earlier (Chuenkova and Pereira, Mol. Biol. Cell 11:1487-1498 (2000)). […]
# [9] = test system: primary cultures of rat Schwann cells; details: cited from earlier work
substance,measurement,setting,value
DSSAHGAPSTPA [peptide TR1],IL-6 secretion by PBMC,[1],less active
DSSAHGAPSTPADSSAHGTPSTPV [TR2],IL-6 secretion by PBMC,[1],less active
DSSAHGAPSTPADSSAHGTPSTPVDSSAHGTPSTPA [TR3],IL-6 secretion by PBMC,[1],less active
DSSAHGAPSTPADSSAHGTPSTPVDSSAHGTPSTPADSSAHSTPSTPA [TR4],IL-6 secretion by PBMC,[1],active in promoting IL-6 release
DSSAHGAPSTPADSSAHGTPSTPVDSSAHGTPSTPADSSAHSTPSTPADSSAHSTPSTPA [TR5],IL-6 secretion by PBMC,[1],active in promoting IL-6 release
GNASQNYWEDAYRC [CYN2],effect of PI-3 kinase inhibitor LY294002 on the apoptosis suppressing effect of the peptide,[2],inhibited by the PI-3 kinase inhibitor LY294002
same,suppression of apoptosis of PC12 cells or Schwann cells,[2],suppressed apoptosis but was less active
QPLRRQRVVVVPLSPRLVLLAFCRQRLPLKRMGGSYRCVNASTAN [peptide C44],effect of PI-3 kinase inhibitor LY294002 on the apoptosis suppressing effect of the peptide,[2],inhibited by the PI-3 kinase inhibitor LY294002
same,suppression of apoptosis of PC12 cells or Schwann cells,[2],potent suppressors of apoptosis
same,protection of PC12 cells from apoptosis induced by trophic factor withdrawal,[3],protected PC12 cells from apoptosis
same,neurite outgrowth in PC12 cells,[4],had direct neurotrophic activity; also recorded: induce dose dependent outgrowth of neurites
RQRLPKRMGGSYRC [peptide C14],effect of PI-3 kinase inhibitor LY294002 on the apoptosis suppressing effect of the peptide,[2],inhibited by the PI-3 kinase inhibitor LY294002
same,suppression of apoptosis of PC12 cells or Schwann cells,[2],potent suppressors of apoptosis
same,protection of PC12 cells from apoptosis induced by trophic factor withdrawal,[3],protected PC12 cells from apoptosis
same,neurite outgrowth in PC12 cells,[4],had direct neurotrophic activity; also recorded: induce dose dependent outgrowth of neurites
RQRLPKRMGGSYRCVNASTAH [CFN1],effect of PI-3 kinase inhibitor LY294002 on the apoptosis suppressing effect of the peptide,[2],inhibited by the PI-3 kinase inhibitor LY294002
same,suppression of apoptosis of PC12 cells or Schwann cells,[2],potent suppressors of apoptosis
same,neurite outgrowth in PC12 cells,[4],had direct neurotrophic activity
TNF-α,IL-6 production by normal human neutrophils,[5],did elicit secretion of IL-6
VCNA: neuraminidase from Vibrio cholera [reference compound],IL-6 secretion by HIMEC,[6],did not stimulate detectable IL-6 secretion
same,protection of PC12 cells from apoptosis induced by trophic factor withdrawal,[3],did not
same,neurite outgrowth in PC12 cells,[4],did not induce neurite outgrowth; also recorded: does not induce neurite outgrowth
VNASTAN [peptide CYFN],effect of PI-3 kinase inhibitor LY294002 on the apoptosis suppressing effect of the peptide,[2],inhibited by the PI-3 kinase inhibitor LY294002
same,suppression of apoptosis of PC12 cells or Schwann cells,[2],did not inhibit apoptosis
same,Erk1/2 phosphorylation in PC12 cells,[7],did not activate Erk
same,survival of PC12^TrkA cells in serum-free medium,[8],did not significantly promoted cell survival
YSVDDGETWE [peptide B2],suppression of apoptosis of PC12 cells or Schwann cells,[2],did not inhibit apoptosis
same,survival of PC12^TrkA cells in serum-free medium,[8]; listed as BR,inactive; also recorded: did not significantly promoted cell survival
same,neurite outgrowth in PC12 cells,[4],did not induce neurite outgrowth; also recorded: did not promote neurite outgrowth
lysophosphatidic acid,dose reported to be active as Schwann cell survival factor,[9],≥ 10 nM
